Drawing on patent publication US9949980B2, “Drugs to prevent HPV infection” (Wisconsin Alumni Research Foundation, priority 2008, dated 2018), this text covers activity and viability for 29 molecules.

The test system of one data set is HPV16 pseudoviruses. The data set can be described thus: microbe, parasite or virus in culture. The data set is classed as cell-based. The following applies: Human papillomavirus 16, HEK-293T, 48 h. Put shortly: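 Viability was read by CellTiter Glo luminescence on the same wells used for the SEAP infection read-out, after 48 hrs further incubation.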
A further data set in a line: in vitro. As to conditions: human.
The mark [1] stands for this setting: read-out: Infectivity (SEAP Activity), 3 μM HTS standard concentration, 293T cells, 48 hrs.
Setting [2] is: read-out: Infectivity vs. viability, 3 μM HTS standard concentration, ratio infectivity/viability.

Like-named read-outs stand apart in the source and are kept apart here.

For `CCCCNC(=O)c1cc2nc(-c3ccc(OCC)cc3)cc(C)n2n1` [Compound 6070486, N-butyl-5-(4-ethoxyphenyl)-7-methylpyrazolo[1,5-a]pyrimidine-2-carboxamide], the activity at 3 µM with HPV16 pseudoviruses (setting [1]) turned out to be 54.6%; in the data set on HPV16 pseudoviruses (setting [2]), 48.3%. The viability (commonly a read-out of living cells in per cent, often relative to untreated cells) at 52 h, 3 μM in the data set “in vitro” (Viability (CelTiter Glow)) came to 113%.
Consider `Cc1ccc(OCc2nnc(NC(=O)Nc3ccc(Cl)c(Cl)c3)s2)cc1` [Compound 6070527, N-(3,4-dichlorophenyl)-N′-{5-[(4-methylphenoxy)methyl]-1,3,4-thiadiazol-2-yl}urea], for which the activity at 3 µM with HPV16 pseudoviruses (setting [1]) was determined as 41.8%; in the data set with HPV16 pseudoviruses (setting [2]) it was 39.8%. The viability at 52 h, 3 μM in “in vitro” (Viability (CelTiter Glow)) is 105%.
In the same order, the values of `O=C(Nc1ccccc1)Nc1nnc(COc2ccc(Cl)cc2)s1` [Compound 6072068, N-{5-[(4-chlorophenoxy)methyl]-1,3,4-thiadiazol-2-yl}-N′-phenylurea] are 54.5%, 48.8% and 112%.
On to `Cc1ccc(-c2cc(N)n(Cc3ccc(Cl)cc3)n2)cc1` [Compound 6077076, 1-(4-chlorobenzyl)-3-(4-methylphenyl)-1H-pyrazol-5-amine], for which the results for the activity at 3 µM in the data set on HPV16 pseudoviruses (setting [1]) and in the data set on HPV16 pseudoviruses (setting [2]) were 20.9% and 28.1%, respectively. Also, in the data set “in vitro” (Viability (CelTiter Glow)), the viability at 52 h, 3 μM was found to be 74.4%.
For `COc1ccccc1CC(N)=NOC(=O)COc1ccc(C)cc1` [Compound 6084167, 2-(2-methoxyphenyl)-N′-{[(4-methylphenoxy)acetyl]oxy}ethanimidamide], the results for the activity at 3 µM in the data set on HPV16 pseudoviruses (setting [1]) and in the data set on HPV16 pseudoviruses (setting [2]) were 53.8% and 47.2%, respectively. Moreover, in “in vitro” (Viability (CelTiter Glow)), the viability at 52 h, 3 μM came to 114%.
In the same order, the values of `O=c1oc2c3c4c(cc2cc1CCO)CCCN4CCC3` [Compound 6105180, 10-(2-hydroxyethyl)-2,3,6,7-tetrahydro-1H,5H,11H-pyrano[2,3-f]pyrido[3,2,1-ij]quinolin-11-one] are 56.9%, 49.5% and 115%.
As for `CN(C)c1cccc(C(=O)NCc2ccc(S(N)(=O)=O)cc2)c1` [Compound 6106063, N-[4-(aminosulfonyl)benzyl]-3-(dimethylamino)benzamide], the values for the activity at 3 µM with HPV16 pseudoviruses (setting [1]) and in the data set on HPV16 pseudoviruses (setting [2]) were 45.6% and 43.4%, respectively. The viability at 52 h, 3 μM in “in vitro” (Viability (CelTiter Glow)) came to 105%.
For `Cc1c(NS(=O)(=O)c2cc(Cl)ccc2Cl)cccc1[N+](=O)[O-]` [Compound 6107659, 2,5-dichloro-N-(2-methyl-3-nitrophenyl)benzenesulfonamide], the activity at 3 µM in the data set with HPV16 pseudoviruses (setting [1]) came to 22.3%; with HPV16 pseudoviruses (setting [2]) it was 32.9%. In addition, in the data set “in vitro” (Viability (CelTiter Glow)), the viability at 52 h, 3 μM is 67.8%.
As to `CCOc1cccc(C(=O)Nc2ccc(NC(=O)c3ccco3)c(OC)c2)c1` [Compound 6113089, N-{4-[(3-ethoxybenzoyl)amino]-2-methoxyphenyl}-2-furamide], the results for the activity at 3 µM with HPV16 pseudoviruses (setting [1]) and with HPV16 pseudoviruses (setting [2]) were 54.6% and 52.9%, respectively. Also, in the data set “in vitro” (Viability (CelTiter Glow)), the viability at 52 h, 3 μM came to 103%.
In the same order, the values of `COc1cc(NC(=O)COc2ccccc2C)ccc1NC(=O)c1ccco1` [Compound 6113090, N-(2-methoxy-4-{[(2-methylphenoxy)acetyl]amino}phenyl)-2-furamide] are 55%, 51.9% and 106%.
Turning to `COc1ccc(S(=O)(=O)Nc2cc(Cl)ccc2C)cc1` [Compound 6118535, N-(5-chloro-2-methylphenyl)-4-methoxybenzenesulfonamide], the results for the activity at 3 µM in the data set with HPV16 pseudoviruses (setting [1]) and with HPV16 pseudoviruses (setting [2]) were 39% and 52.8%, respectively. The viability at 52 h, 3 μM in “in vitro” (Viability (CelTiter Glow)) was determined as 73.9%.
On the same counts, the results for `Cc1cccc(C(=O)Nc2cccc(NC(=O)COc3ccccc3Cl)c2)c1` [Compound 6126189, N-(3-{[(2-chlorophenoxy)acetyl]amino}phenyl)-3-methylbenzamide] are 49.8%, 50.2% and 99.1%.
For `Cc1ccc(N2C(=O)C(Cl)=C(Nc3ccc(C)c(C)c3)C2=O)c(C)c1` [Compound 6137315, 3-chloro-1-(2,4-dimethylphenyl)-4-[(3,4-dimethylphenyl)amino]-1H-pyrrole-2,5-dione], the activity at 3 µM amounted to 55.9% with HPV16 pseudoviruses (setting [1]) and 59.7% with HPV16 pseudoviruses (setting [2]). For the same molecule, the viability at 52 h, 3 μM in “in vitro” (Viability (CelTiter Glow)) amounted to 93.7%.
Consider `O=C1NC(=S)SC1=Cc1cc(Cl)c(OCc2ccccc2)c(Cl)c1` [Compound 6142367, 5-[4-(benzyloxy)-3,5-dichlorobenzylidene]-2-thioxo-1,3-thiazolidin-4-one], for which the activity at 3 µM is 61.2% in the data set with HPV16 pseudoviruses (setting [1]) and 57.9% in the data set with HPV16 pseudoviruses (setting [2]). For the same molecule, the viability at 52 h, 3 μM in the data set “in vitro” (Viability (CelTiter Glow)) stood at 106%.
`COc1ccc(CCNc2cc(N3CCN(C(=O)c4ccc(Cl)cc4)CC3)ccc2[N+](=O)[O-])cc1OC` [Compound 6144357, 5-[4-(4-chlorobenzoyl)-1-piperazinyl]-N-[2-(3,4-dimethoxyphenyl)ethyl]-2-nitroaniline]: the activity at 3 µM with HPV16 pseudoviruses (setting [1]) was 39.5%; with HPV16 pseudoviruses (setting [2]), 46.6%. Moreover, the viability at 52 h, 3 μM in “in vitro” (Viability (CelTiter Glow)) came out at 84.6%.
On to `Cc1nc2cc(-c3cccc(F)c3)nn2c(O)c1C` [Compound 6156840, 2-(3-fluorophenyl)-5,6-dimethylpyrazolo[1,5-a]pyrimidin-7-ol], for which the activity at 3 µM worked out at 63.5% with HPV16 pseudoviruses (setting [1]) and 59.2% with HPV16 pseudoviruses (setting [2]). Further, the viability at 52 h, 3 μM in the data set “in vitro” (Viability (CelTiter Glow)) is 107%.
Turning to `Cc1cc(C=C2C(=O)NC(=S)N(c3ccccc3F)C2=O)c(C)n1C` [Compound 6166672, 1-(2-fluorophenyl)-2-thioxo-5-[(1,2,5-trimethyl-1H-pyrrol-3-yl)methylene]dihydro-4,6(1H,5H)-pyrimidinedione], the activity at 3 µM in the data set on HPV16 pseudoviruses (setting [1]) worked out at 53.5%; with HPV16 pseudoviruses (setting [2]), 49.2%. The viability at 52 h, 3 μM in the data set “in vitro” was 109%.
In the case of `COc1ccc(OC)c(NC(=O)CN(c2cc(OC)ccc2OC)S(C)(=O)=O)c1` [Compound 6167601, N~1~,N~2~-bis(2,5-dimethoxyphenyl)-N~2~-(methylsulfonyl)glycinamide], the figures for the activity at 3 µM in the data set with HPV16 pseudoviruses (setting [1]) and in the data set on HPV16 pseudoviruses (setting [2]) were 59.1% and 54.4%, respectively. For the same molecule, in the data set “in vitro” (Viability (CelTiter Glow)), the viability at 52 h, 3 μM was found to be 109%.
On the same counts, the results for `CC(=O)Nc1ccccc1NC(=O)c1ccccc1I` [Compound 6168016, N-[2-(acetylamino)phenyl]-2-iodobenzamide] are 57%, 53.7% and 106%.
As to `COC(=O)C1=C(C)NC2=C(C(=O)c3ccccc32)C1c1ccc(-c2ccccc2C(=O)O)o1` (stereo not drawn) [Compound 6177037, 2-{5-[3-(methoxycarbonyl)-2-methyl-5-oxo-4,5-dihydro-1H-indeno[1,2-b]pyridin-4-yl]-2-furyl}benzoic acid], the activity at 3 µM in the data set with HPV16 pseudoviruses (setting [1]) came out at 64%; in the data set with HPV16 pseudoviruses (setting [2]), 58.4%. For the same molecule, the viability at 52 h, 3 μM in “in vitro” (Viability (CelTiter Glow)) turned out to be 110%.
As for `COc1ccc(N(CC(=O)Nc2ccc(C(C)C)cc2)S(=O)(=O)c2ccccc2)cc1Cl` [Compound 6186930, N~2~-(3-chloro-4-methoxyphenyl)-N~1~-(4-isopropylphenyl)-N~2~-(phenylsulfonyl)glycinamide], the activity at 3 µM in the data set on HPV16 pseudoviruses (setting [1]) was 37.9%; in the data set on HPV16 pseudoviruses (setting [2]) it was 33.5%. Besides, the viability at 52 h, 3 μM in “in vitro” (Viability (CelTiter Glow)) is 113%.
Regarding `O=C(NCc1ccccn1)C(=O)Nc1ccc([N+](=O)[O-])cc1` [Compound 6198885, N-(4-nitrophenyl)-N′-(2-pyridinylmethyl)ethanediamide], the activity at 3 µM with HPV16 pseudoviruses (setting [1]) is 57.5%; in the data set with HPV16 pseudoviruses (setting [2]) it was 53.8%. Further, in the data set “in vitro” (Viability (CelTiter Glow)), the viability at 52 h, 3 μM is 107%.
As to `COC(=O)C1=C(C)NC2=C(C(=O)c3ccccc32)C1c1ccc(OCc2ccc([N+](=O)[O-])cc2)c(Cl)c1` (stereo not drawn) [Compound 6202416, methyl 4-{3-chloro-4-[(4-nitrobenzyl)oxy]phenyl}-2-methyl-5-oxo-4,5-dihydro-1H-indeno[1,2-b]pyridine-3-carboxylat], the activity at 3 µM with HPV16 pseudoviruses (setting [1]) stood at 51.4%; with HPV16 pseudoviruses (setting [2]) it was 42%. Moreover, the viability at 52 h, 3 μM in the data set “in vitro” (Viability (CelTiter Glow)) is 123%.
In the same order, the values of `CS(=O)(=O)N(CC(=O)Nc1cccc(Br)c1)c1ccc(Cl)cc1` [Compound 6218383, N~1~-(3-bromophenyl)-N~2~-(4-chlorophenyl)-N~2~-(methylsulfonyl)glycinamide] are 47.4%, 46.9% and 101%.
`CCc1ccccc1N(CC(=O)OC)S(C)(=O)=O` [Compound 6226431, methyl N-(2-ethylphenyl)-N-(methylsulfonyl)glycinate]: the activity at 3 µM with HPV16 pseudoviruses (setting [1]) amounted to 62.8%; in the data set on HPV16 pseudoviruses (setting [2]), 55.2%. Also, in “in vitro” (Viability (CelTiter Glow)), the viability at 52 h, 3 μM amounted to 114%.
For `Cc1cccc(C=C2C(=O)NN(c3ccccc3)C2=O)c1` [Compound 6233808, 4-(3-methylbenzylidene)-1-phenyl-3,5-pyrazolidinedione], the activity at 3 µM in the data set on HPV16 pseudoviruses (setting [1]) amounted to 58.5%; with HPV16 pseudoviruses (setting [2]), 50.2%. Further, the viability at 52 h, 3 μM in “in vitro” (Viability (CelTiter Glow)) came to 117%.
On to `CC1CCc2c(sc(NC(=O)c3ccccc3)c2C(N)=O)C1` (stereo not drawn) [Compound 6239347, 2-(benzoylamino)-6-methyl-4,5,6,7-tetrahydro-1-benzothiophene-3-carboxamide], for which the activity at 3 µM in the data set with HPV16 pseudoviruses (setting [1]) was found to be 55.1%; in the data set with HPV16 pseudoviruses (setting [2]) it was 40.5%. The viability at 52 h, 3 μM in “in vitro” (Viability (CelTiter Glow)) is 136%.
`O=C(NCc1c(Cl)cccc1Oc1ccccc1)Nc1ccc(F)cc1` [HTS 04313, N-(2-chloro-6-phenoxybenzyl)-N′-(4-fluorophenyl)urea]: the activity at 3 µM in the data set on HPV16 pseudoviruses (setting [1]) is 36.4%; with HPV16 pseudoviruses (setting [2]) it was 42.7%. In addition, the viability at 52 h, 3 μM in “in vitro” (Viability (CelTiter Glow)) is 85.3%.
For `N#CCCN1CCCN(CCC#N)CCN(CCC#N)CCCN(CCC#N)CC1` [JFD 02931, 3-[4,8,11-tri(2-cyanoethyl)-1,4,8,11-tetraazacyclotetradecanyl]propanenitrile], the activity at 3 µM in the data set with HPV16 pseudoviruses (setting [1]) and in the data set on HPV16 pseudoviruses (setting [2]) was 46.7% throughout. Further, the viability at 52 h, 3 μM in the data set “in vitro” (Viability (CelTiter Glow)) is 99.9%.
